# Laboratory results: a melting point compilation (Tetko et al.; mined from patent text by program, amines drawn as free bases though some values may be those of a salt)
row,Structure (SMILES),melting point [°C]
1,CCc1cccc2c1nc(-c1c(F)cccc1F)n2Cc1c(F)cccc1F,165 to 166
2,Cc1oc(-c2ccccc2)nc1CCOc1ccc(CC(F)(C(=O)O)c2ccccc2)cc1 (stereo unspecified),163 to 165
3,OC1CCCCC1n1c(NC2CC2)nc2cc(Cl)c(Cl)cc21 (stereo unspecified),149 to 151
4,CCOC(=O)c1cc2c(C)c(-c3cccc(Cl)c3)c(=O)oc2nc1C(=O)OCC,170 to 172
5,O=C(CCCCl)CN1C(=O)c2ccccc2C1=O,133 to 134
6,Nc1cc(C(=O)O)ccc1C(F)(F)F,175 to 177
7,CCOC(=O)C(Cc1ccc(OCc2ccccc2)cc1)Oc1ccc(OC(F)(F)F)cc1 (stereo unspecified),34 to 36
8,COc1ccc2c(c1)N(C)C(=S)C2,135 to 136
9,CCOC(=O)CSc1nccc(NCCc2ccc(Cl)cc2)n1,58 to 61
10,CCCn1cc2c(C3C(=O)Nc4ccc(Br)cc43)nc(NCCCN3CCOCC3)nc2n1 (stereo unspecified),298 to 303
11,N=C(NO)c1nc(-c2ccc(C(F)(F)F)cc2)cc(C(F)(F)F)n1,224
12,Cc1c(C(N)=O)oc2ccc(Cc3cccnc3)cc12,175 to 177
13,COC(=O)c1cc(-c2ccc(OC)c(F)c2)nn(CC(C)C)c1=O,119 to 121
14,O=C(c1ccc(F)cc1)C1CCN(CCCn2c(=S)[nH]c3ccccc32)CC1,149
15,"O=C(O)CCCCC(O)CCCl (single isomer, unassigned; (-))",29 to 30
16,CC(C)(C)c1ccc(C2CC(=O)c3ccccc3O2)cc1 (stereo unspecified),103 to 104
17,NCC(O)COc1cccc(CN2CCCCC2)c1 (stereo unspecified),74 to 76.5
18,CC(C)(C)OC(=O)N1CCC(c2nc3cc(-c4ccc(-n5cnnn5)c(F)c4)ccc3o2)CC1,154 to 159
19,CC(=CC#N)c1cc(-c2ccc(S(C)(=O)=O)cc2)c(-c2ccc(F)cc2)s1,150 to 154
20,CCCSc1ccc(C(=O)C(=O)O)[nH]1,87
21,CC1=CC(C)(C)Cc2c1nc(C(C)C)c(C(C)O)c2-c1ccc(F)cc1 (stereo unspecified),117 to 119
22,C=C1CCC2C3CCc4cc(OC(C)=O)ccc4C3CCC12C (stereo unspecified),77 to 79
23,CC(C)C(c1ccc(N)c([N+](=O)[O-])c1)n1cncn1 (stereo unspecified),206
24,COc1ccc(CCCN(Cc2ccccc2)C[C@@H](O)c2ccc(OCc3ccccc3)c(OCc3ccccc3)c2)cc1,59 to 62

row,Structure (SMILES),melting point [°C]
1,COC(=O)C1=C(C)Nc2ccccc2N(C(C)=O)C1c1cccc([N+](=O)[O-])c1 (stereo unspecified),231 to 232
2,CCn1ncc(OCc2ccc(C(=O)c3ccc(Cl)cc3)s2)c(Cl)c1=O,168
3,COc1c(C)c(C)c(OC)c(C(CCCC(=O)O)c2ccccc2)c1C (stereo unspecified),142 to 143
4,CC(C)(C)c1ccc(C(=O)Nc2cc(Cl)c(N)cc2O)cc1,164 to 165
5,c1ccc(-c2nc(-c3ccccc3)c(-c3ccccc3)s2)cc1,84 to 85.5
6,CC(C)N(C(=O)COc1c(F)cc(-c2ccc(C(=O)O)cc2)cc1[N+](=O)[O-])C(C)C,202
7,COC(c1ccc(C)cc1)c1ccccc1Br (stereo unspecified),98 to 99
8,COc1ccc2[nH]c(SCc3ncnc(N4CCCCC4)c3C)nc2c1,94 to 96
9,C=C(Cl)Cc1cc2c(C)cc(=O)oc2c(C)c1O,135 to 163
10,CC(C)(C)c1ccc(C2CCCN3CCS(=O)(=O)N=C23)cc1 (stereo unspecified),232 to 236
11,COc1ccc(Nc2nc(NC3CCCCCC3)nc(OCC3CCCN3)n2)cc1Cl (stereo unspecified),84 to 86
12,CCOC(=O)c1cc(NC(=O)C(Cc2ccc(Cl)c(Cl)c2)NC(=O)OC(C)(C)C)c[nH]1 (stereo unspecified),175 to 185
13,COc1ccc(F)c([N+](=O)[O-])c1C,38 to 40
14,CCOC(=O)C(C)Oc1ccc2c(c1)N(C)C(=O)N(c1ccc(Cl)cc1)S2(=O)=O (stereo unspecified),111 to 112
15,CCCCN(CC)c1nc(C)[nH]c2c(-c3ccc(Cl)cc3Cl)nc(C)c1-2,94 to 95
16,CC(C)(C)OC(=O)N1CCN(C2CC2)CC1,65 to 67
17,C#CCN(c1cc(-c2ccnc3c(C(=O)c4cccs4)cnn23)ccc1F)S(C)(=O)=O,149 to 153
18,CCOC(=O)c1ccc(OCCCCCCCCCCC2c3c(c4ccccc4c4ccccc34)-c3c2c2ccccc2c2ccccc32)cc1,122 to 124
19,CCCc1c(OCC(=O)O)ccc(C(C)=O)c1O,128 to 130
20,CC(C)(C)c1cc(/C=C/C(=O)COc2ccccc2)cc(C(C)(C)C)c1O,100 to 102
21,CC(=O)NCCn1ccc2ncnc(Nc3ccc(Oc4cccc5sncc45)c(Br)c3)c21,132 to 135
22,CNS(=O)(=O)c1ccc(-c2cc(N3CCOCC3)cc(Nc3ccc(OC(F)(F)F)cc3)n2)cc1,234 to 236
23,CC(C)Oc1ccc2c(c1)Oc1cccc(F)c1S2(=O)=O,151 to 152
24,COc1cc(OC)nc(Oc2nccc(-c3ccccc3)c2C(=O)O)n1,165 to 169

row,Structure (SMILES),melting point [°C]
1,O=C(NCc1cccs1)c1cc2ccnc(Cl)c2[nH]1,179 to 181
2,COc1ccc(Cn2cnc(=O)c3[nH]c(C(C)C)nc32)cc1OC1CCCC1,243 to 244
3,CC(C)(C)C(=O)OCCOCn1cnc2c(=O)[nH]c(N)nc21,245 to 246
4,CC(=O)c1cc(CC(=O)O)cc2c1NC(C(F)(F)F)CC2 (stereo unspecified),173 to 174
5,O=C(O)c1ccc(S(=O)(=O)c2ccccc2)cc1,128 to 132
6,O=c1ccn(-c2ccncc2)nc1-c1ccnn1-c1ccccc1,202 to 203
7,CCCCCCCCCCCCCCCCCCOc1cc(C(=O)O)cc(C(=O)OC)c1,81 to 83
8,CC(Cc1ccc(Br)cc1)C(=O)NC(C)(C)CO (stereo unspecified),120 to 121
9,O=S(=O)(CCl)c1ccc(O)c(Br)c1,158 to 160
10,CCN(CC)C(=O)Sc1cc(OC)c(OC)cc1C(=O)c1ccccc1,114 to 116
11,NCCNC(=O)CN1CCC(O)C1=O (stereo unspecified),110 to 112
12,Nc1ccc(S(=O)(=O)C(F)(F)C(F)Cl)cc1Cl (stereo unspecified),98 to 99
13,Cc1cc([N+](=O)[O-])ccc1C(=O)N=CN(C)C,118 to 121
14,O=C(CCCN1CCCC1)NC(Cc1c[nH]c2ccccc12)C(=O)CCc1cc(C(F)(F)F)cc(C(F)(F)F)c1 (stereo unspecified),99 to 100
15,COc1ccc(N2C(=O)CN(C(C)C)C2=O)c(F)c1,88 to 90
16,O=c1c(Cl)c(C(F)(F)F)nc(Nc2cc(C(F)(F)F)ccc2C(F)(F)F)n1C1CCCCC1,181 to 183
17,Oc1cc2[nH]c3cc(O)c(O)cc3c2cc1O,> 300
18,O=C(OCCS(=O)(=O)CCCOCCc1ccccc1)c1ccccc1,65.5
19,OCCCc1ccc(-c2ccc(CCCO)c(C(F)(F)F)c2)cc1C(F)(F)F,87.5 to 90
20,CC(=O)Nc1ccc(C(=O)NCCN2[C@H](C)Cc3ccsc3[C@@H]2C)cc1 (relative stereo),161 to 162
21,CC(=O)NCSC[C@H](NC(=O)OC(C)(C)C)C(=O)O,110 to 112
22,CC(=O)Nc1ccc2c(c1)cc(C(=O)c1ccc(F)cc1)n2C,213 to 215
23,COC(=O)Cc1ccc(OCCNC(=O)C2Cc3ccccc3N2S(=O)(=O)c2ccc(-c3cccc(C(F)(F)F)c3)cc2)c(OC)c1 (stereo unspecified),52 to 60
